This note sets out measurements from ChEMBL document CHEMBL4627415, “Design and Structural Optimization of Dual FXR/PPARδ Activators” (J Med Chem, 2020).

For data set [1], the target named is T1, Bile acid receptor (Homo sapiens) (UniProt Q96RI1).
T1 sequence (whole entry): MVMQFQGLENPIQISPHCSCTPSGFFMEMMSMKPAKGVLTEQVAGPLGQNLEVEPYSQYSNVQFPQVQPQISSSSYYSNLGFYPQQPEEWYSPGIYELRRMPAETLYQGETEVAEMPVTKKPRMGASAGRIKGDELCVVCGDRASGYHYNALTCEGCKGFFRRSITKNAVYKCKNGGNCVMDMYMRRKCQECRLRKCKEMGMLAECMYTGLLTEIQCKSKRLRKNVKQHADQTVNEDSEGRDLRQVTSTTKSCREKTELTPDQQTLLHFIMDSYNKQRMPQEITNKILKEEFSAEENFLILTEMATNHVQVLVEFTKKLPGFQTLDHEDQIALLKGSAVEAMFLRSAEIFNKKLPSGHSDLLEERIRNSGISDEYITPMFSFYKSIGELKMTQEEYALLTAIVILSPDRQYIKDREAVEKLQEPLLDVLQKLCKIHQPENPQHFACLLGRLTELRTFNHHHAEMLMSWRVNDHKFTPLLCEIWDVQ
Nature of the data set: Activation of human FXR LBD expressed in HEK293T cells assessed as induction of receptor activation at 30 uM incubated for 12 to 14 hrs by luciferase reporter gene assay. It is filed as cell-based. Particulars: HEK-293T. A general note: In a reporter assay the amount or activity of a reporter protein is the signal.

Data set [2] concerns the target T2, Peroxisome proliferator-activated receptor delta (Homo sapiens) (UniProt Q03181).
T2 sequence (whole entry): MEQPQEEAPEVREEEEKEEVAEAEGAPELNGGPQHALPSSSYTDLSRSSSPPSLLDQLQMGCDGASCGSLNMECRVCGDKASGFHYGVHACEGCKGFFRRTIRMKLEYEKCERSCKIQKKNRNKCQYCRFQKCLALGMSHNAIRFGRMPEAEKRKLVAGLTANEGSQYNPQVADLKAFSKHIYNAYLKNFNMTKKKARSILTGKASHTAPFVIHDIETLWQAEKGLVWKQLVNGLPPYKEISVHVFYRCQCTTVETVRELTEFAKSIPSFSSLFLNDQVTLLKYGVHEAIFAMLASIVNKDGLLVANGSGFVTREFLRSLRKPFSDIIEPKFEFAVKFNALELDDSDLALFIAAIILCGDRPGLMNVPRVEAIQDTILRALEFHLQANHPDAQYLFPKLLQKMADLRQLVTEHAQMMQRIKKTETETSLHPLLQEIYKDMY
Description: Activation of human PPAR-delta LBD expressed in HEK293T cells assessed as induction of receptor activation at 30 uM incubated for 12 to 14 hrs by luciferase reporter gene assay. The data set is classed as cell-based. Particulars: HEK-293T.

For data set [3], the target named is T2, Peroxisome proliferator-activated receptor delta (Homo sapiens). Description: Activation of human PPAR-delta LBD expressed in HEK293T cells assessed as induction of receptor activation up to 10 uM incubated for 12 to 14 hrs by luciferase reporter gene assay. It is filed as cell-based. The conditions noted are these: HEK-293T.
The nature of data set [4]: Aqueous solubility in pH 8 buffer by HPLC analysis. The data set is classed as physicochemical.
Data set [5] concerns HepG2. Nature of the data set: Toxicity in human HepG2 cells assessed as reduction in cell viability up to 100 uM incubated for 48 hrs by WST1 assay. It is filed as cell-based. Particulars: hepg2, 48 h. (In general: Tetrazolium dyes change colour on reduction, which living cells bring about.)
Data set [6] in a line: Stability in Sprague-Dawley rat liver microsomes assessed as remaining parent compound level at 10 uM presence of NADPH regenerating system by HPLC analysis. It is filed as ADME, Microsome. Particulars: read-out: Stability.
For data set [7], the target named is T1, Bile acid receptor (Homo sapiens). Nature of the data set: Activation of human FXR LBD expressed in HEK293T cells assessed as induction of receptor activation at 1 uM incubated for 12 to 14 hrs by luciferase reporter gene assay. The conditions noted are these: HEK-293T.
In data set [8] the target is T2, Peroxisome proliferator-activated receptor delta (Homo sapiens). Nature of the data set: Activation of human PPAR-delta LBD expressed in HEK293T cells assessed as induction of receptor activation at 1 uM incubated for 12 to 14 hrs by luciferase reporter gene assay relative to L165,041. It is filed as cell-based. The conditions noted are these: HEK-293T.
Data set [9] addresses T1, Bile acid receptor (Homo sapiens). Description: Activation of human FXR LBD expressed in HEK293T cells assessed as induction of receptor activation at 1 uM incubated for 12 to 14 hrs by luciferase reporter gene assay relative to GW4064. It is filed as cell-based. The conditions noted are these: HEK-293T.
Data set [10] concerns the target T3, Bile acid receptor (Homo sapiens, UniProt Q96RI1).
T3 sequence (Q96RI1 whole entry): T1 sequence (whole entry)
Description: Activation of human FXR LBD expressed in HEK293T cells assessed as induction of receptor activation incubated for 12 to 14 hrs by luciferase reporter gene assay. It is filed as cell-based, HEK-293T.

Data set [11] concerns the target T4, Peroxisome proliferator-activated receptor delta (Homo sapiens, UniProt Q03181).
T4 sequence (Q03181 whole entry): T2 sequence (whole entry)
Nature of the data set: Activation of human PPAR-delta LBD expressed in HEK293T cells assessed as induction of receptor activation incubated for 12 to 14 hrs by luciferase reporter gene assay. The data set is classed as cell-based, HEK-293T.

The target of data set [12] is T2, Peroxisome proliferator-activated receptor delta (Homo sapiens). Nature of the data set: Activation of human PPAR-delta LBD expressed in HEK293T cells assessed as induction of receptor activation at 1 uM incubated for 12 to 14 hrs by luciferase reporter gene assay. It is filed as cell-based. The conditions noted are these: HEK-293T.
In data set [13] the target is T1, Bile acid receptor (Homo sapiens). Description: Activation of human FXR LBD expressed in HEK293T cells assessed as induction of receptor activation at 20 uM incubated for 12 to 14 hrs by luciferase reporter gene assay. It is filed as cell-based. Particulars: HEK-293T.
The target of data set [14] is T2, Peroxisome proliferator-activated receptor delta (Homo sapiens). Nature of the data set: Activation of human PPAR-delta LBD expressed in HEK293T cells assessed as induction of receptor activation at 20 uM incubated for 12 to 14 hrs by luciferase reporter gene assay. The data set is classed as cell-based. Particulars: HEK-293T.

Activity calls are given as the source filed them. The rule behind the calls is not given here.

By solubility is commonly meant the dissolved amount per volume that the medium holds. A higher solubility goes with a readily soluble substance. The term EC50 denotes the concentration at which the effect is half-maximal.

`Cc1onc(-c2ccccc2)c1COc1ccc(CCCC(=O)O)cc1`: the result in data set [1] and in data set [2] was inactive.

For the molecule `CC(C)c1onc(-c2c(Cl)cccc2Cl)c1COc1ccc(/C=C/c2cccc(C(=O)O)c2)c(Cl)c1`, the result in data set [3] was inactive. This molecule returned a solubility in [4] of less than 0.1 µg/mL. Also, in data set [5], the Activity result is recorded as “Non-Toxic”. For the same molecule, the remaining at 10 µM in [6] turned out to be 10%. The outcome in data set [7] was Active.

`CC(C)c1onc(-c2ccccc2Cl)c1COc1ccc(COc2ccc(CC(=O)O)cc2)cc1`: the %max in data set [8] is 23%; in data set [9] it was 9%. Also, the EC50 turned out to be 2.5 µM in [10] and 2 µM in data set [11].

Turning to `CCCc1c(OCCCOc2ccc(OCC(=O)O)cc2)ccc(C(C)=O)c1O`, the result in data set [12] was Active.

`CC(C)c1onc(-c2c(Cl)cccc2Cl)c1COc1ccc(COc2ccc(CC(=O)O)cc2)c(Cl)c1`: the %max came out at 15% in [8] and 117% in data set [9]. Moreover, the EC50 in data set [10] turned out to be 0.8 µM; in [11], 1.8 µM.

Regarding `CC(C)c1onc(-c2c(Cl)cccc2Cl)c1COc1ccc(CCCC(=O)O)cc1`, the %max in data set [8] was determined as 15%; in [9], 51%. The EC50 was found to be 6 µM in [10] and 0.7 µM in data set [11].

Regarding `CC(C)c1onc(-c2ccccc2)c1COc1ccc(COc2ccc(CC(=O)O)cc2)cc1`, the %max was determined as 54% in data set [8] and 11% in data set [9]. Further, the EC50 in [10] was determined as 11 µM; in [11], 4.3 µM.

As for `Cc1cc(NCc2ccc(OCc3c(-c4c(Cl)cccc4Cl)noc3C(C)C)cc2)ccc1CC(=O)O`, the %max turned out to be 15% in [8] and 37% in [9]. The results for the EC50 in [10] and in data set [11] were 1.2 µM and 9 µM, respectively.

For `CC(C)c1onc(-c2c(Cl)cccc2Cl)c1COc1ccc(COc2ccc(CC(=O)O)cc2)cc1`, the %max worked out at 17% in data set [8] and 37% in data set [9]. The half-maximal effective concentration (EC50) is 2 µM in [10] and 3.1 µM in data set [11].

`CC(C)c1onc(-c2ccccc2)c1COc1ccc(CCCCCC(=O)O)cc1`: in [13], the outcome was inactive. For the same molecule, the EC50 in data set [11] is greater than 10 µM.

For `CC(C)c1onc(-c2ccccc2)c1COc1ccc(CCCC(=O)O)cc1`, the values for the %max in data set [8] and in data set [9] were 8.7% and 11%, respectively. Further, the half-maximal effective concentration (EC50) in data set [10] was determined as 31 µM; in data set [11], 0.9 µM.

Turning to `CC(C)c1onc(-c2ccccc2Cl)c1COc1ccc(COc2ccc(C(C)(C)C(=O)O)cc2)cc1`, the result in data set [13] and in data set [14] was inactive.

Turning to `CC(C)c1onc(-c2c(Cl)cccc2Cl)c1COc1ccc(CNc2ccc(CC(=O)O)cc2)cc1`, the values for the %max in data set [8] and in data set [9] were 15% and 29%, respectively. For the same molecule, the EC50 in data set [10] stood at 1.6 µM; in data set [11], 3.6 µM.

For the molecule `CC(C)c1onc(-c2ccccc2)c1COc1ccc(COc2ccc(CCC(=O)O)cc2)cc1`, in data set [13], the result was inactive. Moreover, the %max in [8] was 32%. In data set [11], the EC50 was determined as 11 µM.

In the case of `Cc1cccc(C)c1-c1noc(C(C)C)c1COc1ccc(CCCC(=O)O)cc1`, the outcome in [2] was inactive. The %max in data set [9] was found to be 15%. Further, the EC50 in data set [10] turned out to be 7.7 µM.

Regarding `CC(C)c1onc(-c2ccccc2Cl)c1COc1ccc(COc2ccc(OCC(=O)O)cc2)cc1`, the %max is 15% in [8] and 17% in data set [9]. The 50% effective concentration (EC50) in data set [10] was determined as 4.7 µM; in data set [11], 7.2 µM.

Regarding `CC(C)c1onc(-c2ccccc2)c1COc1ccc(COc2cccc(C(=O)O)c2)cc1`, the result in data set [1] was inactive. For the same molecule, the EC50 in data set [11] was greater than 30 µM.

As to `CC(C)c1onc(-c2ccccc2Cl)c1COc1ccc(CCCC(=O)O)cc1`, the %max came to 9% in data set [8] and 16% in data set [9]. Further, the concentration for a half-maximal effect (EC50) was found to be 3.8 µM in [10] and 0.8 µM in [11].

Turning to `CC(C)c1onc(-c2ccccc2)c1COc1ccc(COc2ccc(C(=O)O)cc2)cc1`, the %max in data set [9] stood at 5.1%. In addition, the figures for the half-maximal effective concentration (EC50) in [10] and in data set [11] were 2.3 µM and greater than 30 µM, respectively.

In the case of `CC(C)c1onc(-c2ccccc2)c1COc1ccc(CCCCC(=O)O)cc1`, the EC50 in data set [10] and in data set [11] was greater than 30 µM in each case.

Turning to `CC(C)c1onc(-c2ccccc2C(F)(F)F)c1COc1ccc(CCCC(=O)O)cc1`, the %max in [9] is 37%. The EC50 was 4.4 µM in data set [10] and greater than 30 µM in data set [11].

Turning to `CC(C)c1onc(-c2ccccc2)c1COc1ccc(Oc2ccc(C(=O)O)cc2)cc1`, the outcome in data set [2] was inactive. Also, the %max in data set [9] is 13%. Besides, in data set [10], the EC50 turned out to be 11 µM.
